Laboratory results as given in ChEMBL document CHEMBL5356956, “Optimizing and characterizing 4-methyl substituted pyrazol-3-carboxamides leading to the peripheral cannabinoid 1 receptor inverse agonist TM38837” (Bioorg Med Chem Lett, 2024).
Converted amounts (≈) assume the structure as drawn. One block for each molecule: values may come before it. The source made the active and inactive calls. The calls are words filed in the database; no cut-off is given here.

Assays:
[1] = biological target: T1, Cannabinoid receptor 1 (Homo sapiens, UniProt P21554); experiment: Inverse agonist activity at human CB1 receptor expressed in CHO-K1 cell membrane by GTP-gamma-S assay; type: functional, cell membranes
[2] = Drug concentration in DIO mouse plasma at 10 mg/kg, po measured for 6 hrs; type: ADME, organism-based
[3] = Drug concentration in DIO mouse brain at 10 mg/kg, po measured for 6 hrs relative to plasma concentration; type: ADME, organism-based
[4] = Drug concentration in DIO mouse brain at 10 mg/kg, po measured for 6 hrs; type: ADME, organism-based; details: read-out: Drug uptake
[5] = Drug concentration in DIO mouse liver at 10 mg/kg, po measured for 6 hrs; type: ADME, organism-based; details: read-out: Drug uptake
[6] = Subchronic toxicity in DIO mouse assessed as reduction in body weight at 10 mg/kg, po measured after 7 days; type: organism-based; design: scale not given: the % may be the effect or the level left; details: in vivo, 168 h, time 7 day
[7] = Drug concentration in DIO mouse adipose tissue at 10 mg/kg, po measured for 6 hrs; type: ADME, organism-based; details: read-out: Drug uptake
[8] = Drug concentration in DIO mouse adipose tissue assessed as fold increase at 10 mg/kg, po measured for 6 hrs relative to plasma concentration; type: ADME, organism-based; details: read-out: FC
[9] = Lipophilicity, logD of compound by chromatographic analysis; type: physicochemical
[10] = biological target: T1, Cannabinoid receptor 1; experiment: Antagonist activity at human CB1 receptor expressed in CHO-K1 cell membrane in presence of CP55940 by GTP-gamma-S assay; type: functional, cell membranes
[11] = biological target: T1, Cannabinoid receptor 1; experiment: Inverse agonist activity at human CB1 receptor expressed in African green monkey COS7 cells co-expressing G-protein in presence of CP55940 by IP3 assay; type: functional, cell membranes, Membrane
[12] = biological target: Cannabinoid receptor 2 (Homo sapiens, UniProt P34972); experiment: Inverse agonist activity at human CB2 receptor expressed in CHO-K1 cell membrane in presence of CP55940 by GTP-gamma-S assay; type: functional, cell membranes
[13] = In vivo inverse agonist activity at CB1 receptor in DIO mouse assessed as efficacy at 10 mg/kg, po measured after 6 hrs; type: functional
[14] = biological target: T2, Glucose-dependent insulinotropic receptor (Homo sapiens) (UniProt Q8TDV5); experiment: Inhibition of GPR119 (unknown origin) at 1 uM relative to control
T2 sequence (whole entry): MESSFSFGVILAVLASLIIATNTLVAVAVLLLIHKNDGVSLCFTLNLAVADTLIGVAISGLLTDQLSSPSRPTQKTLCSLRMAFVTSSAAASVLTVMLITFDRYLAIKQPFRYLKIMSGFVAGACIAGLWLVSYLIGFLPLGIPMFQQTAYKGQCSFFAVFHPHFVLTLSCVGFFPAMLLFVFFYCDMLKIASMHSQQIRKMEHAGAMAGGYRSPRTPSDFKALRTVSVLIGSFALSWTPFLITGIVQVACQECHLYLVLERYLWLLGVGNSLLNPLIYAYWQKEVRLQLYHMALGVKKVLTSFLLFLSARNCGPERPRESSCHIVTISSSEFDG

[15] = Drug concentration in NMRI mouse brain relative to plasma concentration; type: ADME, tissue-based
[16] = Clearance in rat hepatocytes assessed per million cells; type: ADME, cell-based, Hepatocyte
[17] = Cmax in NMRI mouse at 10 mg/kg, po; type: ADME, organism-based; design: dose 10 mg/kg, route po; details: in vivo
[18] = Solubility of compound; type: physicochemical
[19] = system: Liver; experiment: In vivo inhibition of CB1 receptor in liver of lean C57BL/6J mouse by autoradiography; type: functional, organism-based
[20] = biological target: G-protein coupled receptor 55 (Homo sapiens) (UniProt Q9Y2T6); experiment: Inhibition of GPR55 (unknown origin) at 1 uM relative to control
[21] = Half life in NMRI mouse at 2 mg/kg, iv; type: ADME, organism-based; details: in vivo
[22] = Oral bioavailability in NMRI mouse at 10 mg/kg; type: ADME, organism-based; details: in vivo
[23] = AUC (infinity) in NMRI mouse at 2 mg/kg, iv; type: ADME, organism-based; design: dose 2 mg/kg, route iv; details: in vivo
[24] = Tmax in NMRI mouse at 30 mg/kg, po; type: ADME, organism-based; details: in vivo
[25] = Tmax in NMRI mouse at 10 mg/kg, po; type: ADME, organism-based; details: in vivo
[26] = biological target: CYP2C9 (Homo sapiens, UniProt P11712); experiment: Inhibition of CYP2C9 (unknown origin) at 10 uM relative to control; type: ADME
[27] = Volume of distribution at steady state in NMRI mouse at 2 mg/kg, iv; type: ADME, organism-based; details: in vivo, read-out: Vdss
[28] = Protein binding in NMRI mouse plasma; type: ADME, cell-free; details: read-out: PPB
[29] = AUC (infinity) in NMRI mouse at 30 mg/kg, po; type: ADME, organism-based; design: dose 30 mg/kg, route po; details: in vivo
[30] = AUC (infinity) in NMRI mouse at 10 mg/kg, po; type: ADME, organism-based; design: dose 10 mg/kg, route po; details: in vivo
[31] = Half life in NMRI mouse at 10 mg/kg, po; type: ADME, organism-based; details: in vivo
[32] = Oral bioavailability in NMRI mouse at 30 mg/kg; type: ADME, organism-based; details: in vivo
[33] = Drug concentration in DIO mouse brain at 10 mg/kg, po measured for 24 hrs; type: ADME, organism-based; details: for Drug uptake: in vivo, po, 10 mg/kg, 24 h, BLD = below limit of detection
[34] = Half life in NMRI mouse at 30 mg/kg, po; type: ADME, organism-based; details: in vivo
[35] = Drug uptake in brain of lean C57BL/6J mouse by autoradiography; type: ADME, tissue-based; details: in vivo
[36] = Efflux ratio of permeability in human Caco-2 cells; type: ADME, cell-based
[37] = Clearance in NMRI mouse at 2 mg/kg, iv; type: ADME, organism-based; details: in vivo
[38] = Cmax in NMRI mouse at 30 mg/kg, po; type: ADME, organism-based; design: dose 30 mg/kg, route po; details: in vivo
[39] = Drug concentration in DIO mouse adipose tissue at 10 mg/kg, po measured for 6 hrs relative to plasma concentration; type: ADME, organism-based; details: other tissue
[40] = biological target: hERG (Homo sapiens, UniProt Q12809); experiment: Inhibition of hERG at 10 uM by patch clamp assay relative to control; type: toxicity
[41] = biological target: Voltage-gated inwardly rectifying potassium channel KCNH2 (Homo sapiens, UniProt Q12809); experiment: Inhibition of hERG by patch clamp assay; type: toxicity
Sequence of Voltage-gated inwardly rectifying potassium channel KCNH2 (Q12809 whole entry): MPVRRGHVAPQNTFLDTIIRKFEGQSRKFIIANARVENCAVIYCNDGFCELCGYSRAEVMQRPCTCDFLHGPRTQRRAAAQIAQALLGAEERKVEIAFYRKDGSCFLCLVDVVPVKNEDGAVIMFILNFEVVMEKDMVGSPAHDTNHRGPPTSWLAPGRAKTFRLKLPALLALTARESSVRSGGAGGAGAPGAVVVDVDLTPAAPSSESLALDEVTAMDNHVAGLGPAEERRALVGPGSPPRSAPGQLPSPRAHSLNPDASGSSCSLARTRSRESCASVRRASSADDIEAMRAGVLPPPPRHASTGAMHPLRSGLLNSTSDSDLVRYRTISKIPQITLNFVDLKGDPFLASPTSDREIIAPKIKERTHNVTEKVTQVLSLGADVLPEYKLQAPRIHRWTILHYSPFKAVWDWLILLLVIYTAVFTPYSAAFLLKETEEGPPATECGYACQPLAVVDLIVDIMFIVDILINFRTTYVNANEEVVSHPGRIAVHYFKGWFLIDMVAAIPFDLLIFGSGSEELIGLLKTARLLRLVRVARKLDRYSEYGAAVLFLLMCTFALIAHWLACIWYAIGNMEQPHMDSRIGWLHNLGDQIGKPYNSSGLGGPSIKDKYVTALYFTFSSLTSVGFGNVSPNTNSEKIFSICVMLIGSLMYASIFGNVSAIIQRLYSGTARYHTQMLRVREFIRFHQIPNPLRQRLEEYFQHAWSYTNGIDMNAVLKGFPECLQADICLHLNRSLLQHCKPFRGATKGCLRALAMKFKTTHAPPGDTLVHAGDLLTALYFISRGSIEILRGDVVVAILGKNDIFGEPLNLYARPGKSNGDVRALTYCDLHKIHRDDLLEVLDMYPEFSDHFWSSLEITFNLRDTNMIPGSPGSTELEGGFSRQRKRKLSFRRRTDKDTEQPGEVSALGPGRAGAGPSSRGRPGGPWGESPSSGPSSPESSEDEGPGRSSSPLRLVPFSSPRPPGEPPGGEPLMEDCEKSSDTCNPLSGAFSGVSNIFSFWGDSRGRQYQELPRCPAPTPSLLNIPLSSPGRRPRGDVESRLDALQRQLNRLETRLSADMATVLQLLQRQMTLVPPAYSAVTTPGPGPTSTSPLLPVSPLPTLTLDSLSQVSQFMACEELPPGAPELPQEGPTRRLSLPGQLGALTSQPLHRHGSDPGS

Sequence of hERG (Q12809 whole entry): as above
Sequence of Cannabinoid receptor 2 (P34972 whole entry): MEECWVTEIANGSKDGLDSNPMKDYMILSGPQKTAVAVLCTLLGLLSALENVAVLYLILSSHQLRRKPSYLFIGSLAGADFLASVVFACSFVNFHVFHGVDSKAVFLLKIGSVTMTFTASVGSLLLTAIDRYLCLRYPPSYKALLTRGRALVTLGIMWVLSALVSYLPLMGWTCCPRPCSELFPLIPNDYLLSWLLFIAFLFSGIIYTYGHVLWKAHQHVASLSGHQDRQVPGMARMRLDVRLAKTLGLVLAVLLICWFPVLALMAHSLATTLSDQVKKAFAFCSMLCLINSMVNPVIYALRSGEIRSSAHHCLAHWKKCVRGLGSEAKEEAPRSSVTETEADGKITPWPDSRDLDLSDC
T1 sequence (P21554 whole entry): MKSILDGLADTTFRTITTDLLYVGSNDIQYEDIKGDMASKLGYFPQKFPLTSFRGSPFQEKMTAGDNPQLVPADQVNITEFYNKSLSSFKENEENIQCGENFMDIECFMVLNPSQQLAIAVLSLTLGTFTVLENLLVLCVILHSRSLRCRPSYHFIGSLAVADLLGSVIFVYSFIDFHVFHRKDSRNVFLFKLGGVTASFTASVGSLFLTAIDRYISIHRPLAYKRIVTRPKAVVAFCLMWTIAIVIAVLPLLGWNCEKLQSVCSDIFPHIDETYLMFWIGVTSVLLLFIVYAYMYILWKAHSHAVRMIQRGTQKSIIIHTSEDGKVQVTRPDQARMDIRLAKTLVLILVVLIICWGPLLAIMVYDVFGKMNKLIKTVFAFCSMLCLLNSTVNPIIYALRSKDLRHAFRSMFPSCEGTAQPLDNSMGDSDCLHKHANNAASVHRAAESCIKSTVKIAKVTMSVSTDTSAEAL
Sequence of G-protein coupled receptor 55 (Homo sapiens) (Q9Y2T6 whole entry): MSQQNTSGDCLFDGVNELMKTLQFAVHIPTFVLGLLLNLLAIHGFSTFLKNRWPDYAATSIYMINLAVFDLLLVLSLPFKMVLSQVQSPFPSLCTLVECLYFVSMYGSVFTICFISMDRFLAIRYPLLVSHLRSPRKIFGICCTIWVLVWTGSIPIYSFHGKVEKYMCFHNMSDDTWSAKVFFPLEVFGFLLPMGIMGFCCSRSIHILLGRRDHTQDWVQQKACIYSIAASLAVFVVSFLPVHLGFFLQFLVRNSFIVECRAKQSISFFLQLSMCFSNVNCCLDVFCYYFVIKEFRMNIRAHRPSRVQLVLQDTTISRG
Sequence of CYP2C9 (P11712 whole entry): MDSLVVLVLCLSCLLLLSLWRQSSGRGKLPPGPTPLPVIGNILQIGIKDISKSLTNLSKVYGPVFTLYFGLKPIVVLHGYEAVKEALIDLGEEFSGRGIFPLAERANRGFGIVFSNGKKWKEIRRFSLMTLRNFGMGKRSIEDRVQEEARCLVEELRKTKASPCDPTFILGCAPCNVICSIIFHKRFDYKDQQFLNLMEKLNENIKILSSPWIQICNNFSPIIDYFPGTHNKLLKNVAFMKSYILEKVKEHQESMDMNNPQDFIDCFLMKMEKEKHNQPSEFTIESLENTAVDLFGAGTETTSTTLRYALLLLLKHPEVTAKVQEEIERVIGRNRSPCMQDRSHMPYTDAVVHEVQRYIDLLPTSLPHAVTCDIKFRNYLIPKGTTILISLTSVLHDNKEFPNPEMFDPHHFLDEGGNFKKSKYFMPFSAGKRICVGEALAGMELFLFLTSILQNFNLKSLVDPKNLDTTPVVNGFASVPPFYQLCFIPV

SMILES: C[C@@H](NC(=O)c1nn(-c2ccccc2Cl)c(-c2ccc(Cl)cc2)c1Cc1nn[nH]n1)c1ccc(OC(F)(F)F)cc1
- IC50 [1]: 21 nM
- concentration at 6 h [2]: 12 µM
- Drug uptake [3]: 1.3%
- concentration at 6 h [4]: 0.16 µM
- concentration at 6 h [5]: 35 µM
- Activity [6]: 11.8%
- concentration at 6 h [7]: 4 µM
- Kp at 6 h [8]: 5
- chromatographic logD [9]: 2.9
- IC50 [10]: 9.6 nM
- IC50 [11]: 4.8 nM
- IC50 [12]: > 10000 nM
- Efficacy [13]: 11%

SMILES: C[C@@H](NC(=O)c1nn(-c2ccccc2Cl)c(-c2ccc(Cl)cc2)c1Cc1nn[nH]n1)c1ccc(C(F)(F)F)cc1
- inhibition [14]: < 30%
- Drug uptake [15]: ~ 1%
- CLH [16]: 16 µL/min/1e6 cells
- Cmax [17]: 13 µM
- solubility [18]: 250 µM (≈ 147 µg/mL)
- IC50 [1]: 24 nM
- concentration at 6 h [2]: 6.5 µM
- inhibition [19]: Active
- inhibition [20]: < 30%
- Drug uptake [3]: 1.3%
- half-life [21]: 2.5 h
- bioavailability [22]: 95%
- concentration at 6 h [4]: 0.08 µM
- concentration at 6 h [5]: 47 µM
- Activity [6]: 11.4%
- AUC(0-inf) [23]: 22 µM·h
- concentration at 6 h [7]: 1.2 µM
- Kp at 6 h [8]: 5
- Tmax [24]: 2 h
- Tmax [25]: 2 h
- inhibition at 10 µM [26]: 39%
- Vd [27]: 0.4 L/kg
- fraction unbound [28]: < 0.01
- AUC(0-inf) [29]: 297 µM·h
- chromatographic logD [9]: 2.8
- IC50 [10]: 6.7 nM
- AUC(0-inf) [30]: 104 µM·h
- IC50 [11]: 3.3 nM
- half-life [31]: 3.1 h
- IC50 [12]: 4500 nM
- bioavailability [32]: 91%
- Efficacy [13]: 11%
- concentration at 24 h ([33]; brain, read-out: Drug uptake): 0.02 µM
- half-life [34]: 4 h
- Drug uptake [35]: Active
- efflux ratio [36]: 1
- clearance [37]: 2.6 mL/min/kg
- Cmax [38]: 41 µM

- Drug uptake [15]: ~ 1%
- Cmax [17]: 47 µM
- IC50 [1]: 51 nM
- concentration at 6 h [2]: 38 µM
- Drug uptake [3]: 0.6%
- half-life [21]: 3.1 h
- bioavailability [22]: 88%
- concentration at 6 h [4]: 0.22 µM
- concentration at 6 h [5]: 10 µM
- concentration at 6 h [7]: 1.5 µM
- Tmax [25]: 0.5 h
- Vd [27]: 0.6 L/kg
- fraction unbound [28]: < 0.01
- chromatographic logD [9]: 2.6
- Drug uptake [39]: 4%
- IC50 [10]: 4.8 nM
- IC50 [11]: 2.9 nM
- half-life [31]: 2.2 h
- IC50 [12]: > 10000 nM
- Drug uptake [33]: Bld
- efflux ratio [36]: 1.3
- clearance [37]: 2.1 mL/min/kg
SMILES: O=C(O)Cc1c(C(=O)N2CCC(c3ccccc3F)CC2)nn(-c2ccccc2Cl)c1-c1ccc(Cl)cc1
- Activity [6]: 6.4%

- CLH [16]: 18 µL/min/1e6 cells
- IC50 [1]: 1.8 nM
SMILES: NC(=O)Cc1c(C(=O)N2CCC(O)(c3ccc(F)cn3)CC2)nn(-c2ccccc2Cl)c1-c1ccc(Cl)cc1
- inhibition at 10 µM [40]: 38%

- IC50 [1]: 300 nM
- concentration at 6 h [2]: 9 µM
- Drug uptake [3]: 0.8%
- concentration at 6 h [4]: 0.07 µM
- concentration at 6 h [5]: 9.5 µM
- concentration at 6 h [7]: 0.35 µM
- chromatographic logD [9]: 2.7
- Drug uptake [39]: 4%
- IC50 [10]: 18 nM
- IC50 [11]: 18 nM
- IC50 [12]: > 10000 nM
- Drug uptake [33]: Bld
SMILES: O=C(O)Cc1c(C(=O)N2CCC(c3ccc(F)cc3)CC2)nn(-c2ccccc2Cl)c1-c1ccc(Cl)cc1
- Activity [6]: 0.2%

- CLH [16]: 18 µL/min/1e6 cells
- solubility [18]: 81 µM (≈ 43.8 µg/mL)
SMILES: NC(=O)Cc1c(C(=O)NC2CCN(C(=O)C3CC3)CC2)nn(-c2ccccc2Cl)c1-c1ccc(Cl)cc1
- inhibition at 10 µM [40]: 24%

- CLH [16]: 8 µL/min/1e6 cells
- IC50 [1]: 0.45 nM
- IC50 [11]: 1.8 nM
- IC50 [12]: 7900 nM
SMILES: NC(=O)Cc1c(C(=O)N2CCC(O)(c3ccc(F)cc3)CC2)nn(-c2ccccc2Cl)c1-c1ccc(Cl)cc1
- IC50 [41]: 800 nM
- inhibition at 10 µM [40]: 93%
